# Results published in patent US8507756B2, “Plant protection” (Plant Bioscience Limited, priority 2007, dated 2013).
# Tested on: Manduca sexta (tobacco hornworm)
# Assay: JA seed treatment, tomato plants challenged with Manduca sexta caterpillars
# Assay type: in vivo
# Settings: tomato cv. Carousel, seed treatment 1.5 mM JA, 4 days feeding
# Protocol: Tomato, pepper, maize and wheat seeds were treated with 3 mM JA or 1.5 mM JA solutions or with 3 mM methyl jasmonate (MeJA) or with deionised water containing 42.8 mM ethanol (control) by full submersion of up to 40 seeds in a Petri dish of solution wrapped in foil for a period of 24 hours at 4° C. in a fridge. A temperature of 4° C. was used both to prevent degradation of the jasmonic acid solutions and to prevent germination of the seeds.
# Tomato plants were then challenged with Tetranychus urticae (two-spotted spider mite) which were allowed to feed for 9 days, Manduca sexta (tobacco hornworm) caterpillars which were allowed to feed for 4 days or Myzus persicae (aphid), which were allowed to feed for 10 or 12 days. In each case these organisms were restricted to the plant on which they had originally been placed. Pepper plants were challenged with Myzus persicae (aphid), which were allowed to feed for 2 weeks. […]
# The effect of Manduca sexta or Spodoptera exempta on plants was determined by measurement of the leaf area eaten, measured using a leaf area meter.
# Seeds of a UK commercial F1 hybrid tomato variety (cv. Carousel) were treated with 1.5 mM jasmonic acid (JA), and plants grown in conditions appropriate to this crop (as described under Example 1). […] Caterpillars were allowed to feed on the plants for four days and the area of grazed leaves was then measured. […]
smiles,measurement,setting,value
"CC/C=C\C[C@H]1C(=O)CC[C@@H]1CC(=O)O [JA, jasmonic acid]","Caterpillar growth, less than those feeding on controls",,20%
same,"Leaf area remaining after grazing, compared with controls",challenged 8 weeks after seed treatment,significantly higher
